Experimental data reported in patent US20170121683A1, “ARYL HYDROCARBON RECEPTOR DISRUPTION AND ENHANCEMENT” (priority 2015, published 2017).

Experiments:
[1] = test system: hESC-derived non-adherent hematopoietic progenitor cells; experiment: Cell cycle analysis (EdU/propidium iodide flow cytometry); type: cell-based, human; details: Day 6+5, SR-1 or TCDD, n=3
Method: FIG. 10A. Non-adherent hematopoietic progenitor cells derived from hESCs were cultured in the presence of DMSO, SR-1, and TCDD until Day 6+5. Cell cycle phase was assessed using flow cytometry to determine the total percentage of G0/G1)(EdU^−PI^lo, S-phase (EdU^+PI^+), or G2/M (EdU^−PI^hi). Representative flow cytometry plots are shown. FIG. 10B. Quantification of cell cycle analysis, n=3, *p<0.05, **p<0.01, ***p<0.001 as assessed by two-way ANOVA+Tukey-Kramer multiple comparisons post-hoc test.
Spin EBs were differentiated into hemato-endothelial cells with non-adherent cells harvested on Day 6+5. Cells were cultured in a 24-well plate and harvested after 1 week for flow cytometry analysis. Cells were co-stained with anti-human CD34-PECy7 to monitor proliferation of HSPCs. For cell cycle analysis, Day 6+5 non-adherent cells derived from EBs were harvest and monitored for S-phase using the Click-iT EdU Alex Fluor 647 flow cytometry assay kit per manufacturer instructions. Prior to flow cytometry, cells were counterstained with 50 μg/mL propidium iodide supplemented with 100 μg/mL RNAse A (New England BioLabs, Ipswich, Mass.).

[2] = test system: AHR-target genes (CYP1A1 and CYP1B1) in H9 hESCs; experiment: qPCR of AHR downstream gene targets in undifferentiated hESCs; type: cell-based, human; details: 1 μM SR-1 or 10 nM TCDD for 96 hours, compared to DMSO controls
Method: Undifferentiated H9 hESCs were treated with either DMSO (vehicle), 1 μM SR-1, or 10 nM TCDD for 96 hours in hESC growth media. Quantitative polymerase chain reaction analysis for AHR and two downstream effector gene targets (CYP1A1 and CYP1B1) are shown.
FIG. 8A. Non-adherent hematopoietic progenitor cells derived from hESCs were harvested at Day 6+3, Day 6+5, Day 6+7, and Day 6+9 time points and probed for gene expression by quantitative real-time PCR (qPCR). For each gene, Ct values were normalized to GAPDH at each time point and data is presented as relative fold-change as compared to undifferentiated hESCs. […] FIG. 8B Undifferentiated hESCs were cultured in the presence of 1 μM SR-1, 10 nM TCDD, or DMSO vehicle control for 96 hours and probed for gene expression by qPCR. For each gene, Ct values were normalized to GAPDH at each time point and data is presented as relative fold-change as compared to DMSO treated hESCs. n=3, error bars represent SEM, *p<0.05 assessed by two-way ANOVA+Tukey-Kramer multiple comparisons post-hoc test. FIG. 8C. Both adherent and non-adherent cell fractions treated with either DMSO, SR-1, or TCDD were harvested at Day 6+3, Day 6+6, and Day 6+9 and probed for viability with Sytox Blue Live/Dead Stain. Total percentage of viable cells for each group and time point are plotted. n=3.
H9 human embryonic stem cells (H9 hESCs; University of Wisconsin, Madison, Wis.) were adapted to passage as single cells using TrypLE (Invitrogen, Carlsbad, Calif.) as previously described (Ng et al. Nat. Protoc. 3, 768-76 (2008)). H9 hESCs were maintained on irradiated mouse embryonic fibroblasts in ES cell growth medium including Dulbecco's modified Eagle's medium (DMEM)/Ham's F-12 medium (F12) (Invitrogen) supplemented with 15% Knockout Serum Replacer (Invitrogen), 1 mM L-glutamine (Invitrogen), 0.1 mM β-mercaptoethanol (Sigma Aldrich, St. Louis, Mo.), 1% minimum essential medium nonessential amino acids (Invitrogen), 4 ng/mL basic fibroblast growth factor (R&D Systems Inc., Minneapolis, Minn.), and 1% penicillin-streptomycin (Invitrogen) incubated at 37° C. in a humidified atmosphere containing 5% CO2. Single-cell adapted hESCs were subjected to hemato-endothelial differentiation as spin embryoid bodies (“spin-EBs”), also previously described (Ng et al. Nat. Protoc. 3, 768-76 (2008); Knorr et al. Stem Cells Dev. 22, 1861-9 (2013); Ferrell et al., Stem Cells 33(4), 1130-41 (2015)). […]

Compound | percentage of cells in G0/G1 phase (EdU−PIlow) [1] | percentage of cells in S-phase (EdU+PI+) [1] | expression of CYP1A1 [2] | expression of CYP1B1 [2]
CC(C)n1cnc2c(NCCc3ccc(O)cc3)nc(-c3csc4ccccc34)nc21 [SR-1, StemReginin-1] | 43.7%±1.82 | 38.2%±1.00 | reduced expression | reduced expression
Clc1cc2c(cc1Cl)Oc1cc(Cl)c(Cl)cc1O2 [TCDD, 2,3,7,8-tetrachlorodibenzo-p-dioxin] | 25.8±0.34% | 38.2%±1.03 | significantly increased expression | significantly increased expression
